This note sets out measurements from patent publication US11802111B2, “Cyclobutyl amide monoacylglycerol lipase modulators” (Janssen Pharmaceutica NV, priority 2020, dated 2023).

human MGL from HeLa cells, sequence (Q99685 whole entry): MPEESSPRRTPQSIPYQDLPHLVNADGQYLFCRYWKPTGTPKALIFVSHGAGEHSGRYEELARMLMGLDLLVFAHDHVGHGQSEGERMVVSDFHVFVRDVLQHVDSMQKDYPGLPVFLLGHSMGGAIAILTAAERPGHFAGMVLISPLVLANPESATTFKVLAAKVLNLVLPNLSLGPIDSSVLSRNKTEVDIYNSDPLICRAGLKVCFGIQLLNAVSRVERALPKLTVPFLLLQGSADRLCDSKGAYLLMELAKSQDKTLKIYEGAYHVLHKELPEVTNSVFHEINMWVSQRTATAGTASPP

The assay deals with human MGL from HeLa cells (Homo sapiens (Human), UniProt Q99685). The experiment in a line: MGL in vitro activity assay ([glycerol-1,3-3H]-oleoyl glycerol hydrolysis, activated carbon filtration). The assay is classed as biochemical. The settings on record: 300 nM [Glycerol-1,3-3H]-oleoyl glycerol, one hour. In outline:
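Activity measured as tritium in the flow-through after activated carbon filtration of a 1 h reaction containing 300 nM 3H-oleoyl glycerol, compound and HeLa-derived human MGL. Compounds screened at 10 μM; IC50 series start at an empirically chosen highest concentration.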
For `Cc1cc(C)cc([C@H]2CC[C@]3(CC2)CN(C(=O)[C@H]2C[C@@](C)(O)C2)[C@@H]3C)c1` (stereo in doubt) [Example 349, ((1*R,4r,7*R)-7-(3,5-Dimethylphenyl)-1-methyl-2-azaspiro[3.5]nonan-2-yl)((1s,3*S)-3-hydroxy-3-methylcyclobutyl)methanone], the IC50 was 523 nM.

With `Cc1cc(C)cc([C@H]2CC[C@@]3(CC2)CN(C(=O)[C@H]2C[C@@](C)(O)C2)[C@H]3C)c1` (stereo in doubt) [Example 350, ((1*S,4s,7*R)-7-(3,5-Dimethylphenyl)-1-methyl-2-azaspiro[3.5]nonan-2-yl)((1s,3*R)-3-hydroxy-3-methylcyclobutyl)methanone], the IC50 is 34 nM.

Turning to `Cc1cc(C)cc([C@H]2CC[C@@]3(CC2)CN(C(=O)[C@H]2C[C@@](C)(O)C2)[C@@H]3C)c1` (stereo in doubt) [Example 351, ((1*R,4s,7*S)-7-(3,5-Dimethylphenyl)-1-methyl-2-azaspiro[3.5]nonan-2-yl)((1s,3*S)-3-hydroxy-3-methylcyclobutyl)methanone], the IC50 was 77 nM.

`Cc1nc(O[C@H]2CCC3(C[C@@H]2C)CN(C(=O)[C@H]2C[C@@](C)(O)C2)C3)ccc1C(F)(F)F` (stereo in doubt) [Example 444, ((1s,3*R)-3-Hydroxy-3-methylcyclobutyl)((6*S,7*S)-6-methyl-7-((6-methyl-5-(trifluoromethyl)pyridin-2-yl)oxy)-2-azaspiro[3.5]nonan-2-yl)methanone] showed an IC50 of 4.8 nM. Against the preceding compound, the IC50 is about 16-fold lower.

The compound `Cc1nc(O[C@@H]2CCC3(C[C@H]2C)CN(C(=O)[C@H]2C[C@@](C)(O)C2)C3)ccc1C(F)(F)F` (stereo in doubt) [Example 445, ((1s,3*S)-3-Hydroxy-3-methylcyclobutyl)((6*R,7*R)-6-methyl-7-((6-methyl-5-(trifluoromethyl)pyridin-2-yl)oxy)-2-azaspiro[3.5]nonan-2-yl)methanone] came in with an IC50 of 33 nM. This IC50 is about 6.9-fold higher than that of the compound before.

For `CC(C)(C)c1cccc(C2CC3(C2)CN(C(=O)[C@H]2C[C@@](C)(O)C2)C3)c1` [Example 1, (6-(3-(tert-Butyl)phenyl)-2-azaspiro[3.3]heptan-2-yl)((1s,3s)-3-hydroxy-3-methylcyclobutyl)methanone], inhibition was half-maximal at 9.9 nM (IC50).

As to `CC(C)(C)c1ccc(C2CC3(C2)CN(C(=O)[C@H]2C[C@@](C)(O)C2)C3)cc1` [Example 2, (6-(4-(tert-Butyl)phenyl)-2-azaspiro[3.3]heptan-2-yl)((1s,3s)-3-hydroxy-3-methylcyclobutyl)methanone], the 50% inhibitory concentration (IC50) amounted to 149 nM.

For `CC(C)c1cccc(C2CC3(C2)CN(C(=O)[C@H]2C[C@@](C)(O)C2)C3)c1` [Example 3, ((1s,3s)-3-Hydroxy-3-methylcyclobutyl)(6-(3-isopropylphenyl)-2-azaspiro[3.3]heptan-2-yl)methanone], the IC50 worked out at 24 nM. This IC50 is about 6.2-fold lower than that of the compound before.

The compound `CC(C)c1ccc(C2CC3(C2)CN(C(=O)[C@H]2C[C@@](C)(O)C2)C3)cc1` [Example 4, ((1s,3s)-3-Hydroxy-3-methylcyclobutyl)(6-(4-isopropylphenyl)-2-azaspiro[3.3]heptan-2-yl)methanone] came in with an IC50 of 128 nM. This IC50 lies about 5.3-fold higher than the previous one.

The compound `C[C@]1(O)C[C@@H](C(=O)N2CC3(CC(c4ccc(C5CC5)cc4)C3)C2)C1` [Example 5, (6-(4-Cyclopropylphenyl)-2-azaspiro[3.3]heptan-2-yl)((1s,3s)-3-hydroxy-3-methylcyclobutyl)methanone] came in with an IC50 of 292 nM. Compared with the last compound, the IC50 is about 2.3-fold higher.

`Cc1ccc(C2CC3(C2)CN(C(=O)[C@H]2C[C@@](C)(O)C2)C3)cc1C(F)(F)F` [Example 6, ((1s,3s)-3-Hydroxy-3-methylcyclobutyl)(6-(4-methyl-3-(trifluoromethyl)phenyl)-2-azaspiro[3.3]heptan-2-yl)methanone] returned an IC50 of 31 nM.

On to `C[C@]1(O)C[C@@H](C(=O)N2CC3(CC(c4cccc(C5CC5)c4)C3)C2)C1` [Example 20, (6-(3-Cyclopropylphenyl)-2-azaspiro[3.3]heptan-2-yl)((1s,3s)-3-hydroxy-3-methylcyclobutyl)methanone], for which the IC50 is 37 nM. The IC50 values of the last two compounds are within 1.5-fold of each other.

Regarding `Cc1c(C2CC3(C2)CN(C(=O)[C@H]2C[C@@](C)(O)C2)C3)cccc1C(F)(F)F` [Example 21, ((1s,3s)-3-Hydroxy-3-methylcyclobutyl)(6-(2-methyl-3-(trifluoromethyl)phenyl)-2-azaspiro[3.3]heptan-2-yl)methanone], the half-maximal inhibitory concentration (IC50) came to 112 nM.

On to `Cc1ccc(C2CCC3(CC2)CN(C(=O)[C@H]2C[C@@](C)(O)C2)C3)cc1Cl` [Example 22, (7-(3-Chloro-4-methylphenyl)-2-azaspiro[3.5]nonan-2-yl)((1s,3s)-3-hydroxy-3-methylcyclobutyl)methanone], for which the IC50 stood at 12 nM.

The compound `Cc1ccc(C2CC3(C2)CN(C(=O)[C@H]2C[C@@](C)(O)C2)C3)cc1OC(F)(F)F` [Example 23, ((1s,3s)-3-Hydroxy-3-methylcyclobutyl)(6-(4-methyl-3-(trifluoromethoxy)phenyl)-2-azaspiro[3.3]heptan-2-yl)methanone] had an IC50 of 45 nM.

`Cc1ccc(C2CC3(C2)CN(C(=O)[C@H]2C[C@@](C)(O)C2)C3)cc1C1CC1` [Example 27, (6-(3-Cyclopropyl-4-methylphenyl)-2-azaspiro[3.3]heptan-2-yl)((1s,3s)-3-hydroxy-3-methylcyclobutyl)methanone] yielded an IC50 of 47 nM.

Take `Cc1cc(C2CC2)ccc1C1CC2(C1)CN(C(=O)[C@H]1C[C@@](C)(O)C1)C2` [Example 28, (6-(4-Cyclopropyl-2-methylphenyl)-2-azaspiro[3.3]heptan-2-yl)((1s,3s)-3-hydroxy-3-methylcyclobutyl)methanone]: the IC50 was found to be 125 nM.

For `C[C@]1(O)C[C@@H](C(=O)N2CC3(CC(c4ccc5ccncc5c4)C3)C2)C1` [Example 30, ((1s,3s)-3-Hydroxy-3-methylcyclobutyl)(6-(isoquinolin-7-yl)-2-azaspiro[3.3]heptan-2-yl)methanone], the IC50 is 1180 nM.

`C[C@]1(O)C[C@@H](C(=O)N2CC3(CC(c4ccc5cnccc5c4)C3)C2)C1` [Example 31, ((1s,3s)-3-Hydroxy-3-methylcyclobutyl)(6-(isoquinolin-6-yl)-2-azaspiro[3.3]heptan-2-yl)methanone] displayed an IC50 of 1600 nM.

The compound `C[C@]1(O)C[C@@H](C(=O)N2CC3(CC(c4cccc(N5CCCC5)c4)C3)C2)C1` [Example 32, ((1s,3s)-3-Hydroxy-3-methylcyclobutyl)(6-(3-(pyrrolidin-1-yl)phenyl)-2-azaspiro[3.3]heptan-2-yl)methanone] registered an IC50 of 178 nM.

`Cc1cc(C2CC3(C2)CN(C(=O)[C@H]2C[C@@](C)(O)C2)C3)ccc1C(F)(F)F` [Example 33, ((1s,3s)-3-Hydroxy-3-methylcyclobutyl)(6-(3-methyl-4-(trifluoromethyl)phenyl)-2-azaspiro[3.3]heptan-2-yl)methanone] had an IC50 of 246 nM.

As for `CC(C)(C)c1cccc(C2CC3(C2)CN(C(=O)[C@H]2C[C@@](C)(O)C2)C3)n1` [Example 34, (6-(6-(tert-Butyl)pyridin-2-yl)-2-azaspiro[3.3]heptan-2-yl)((1s,3s)-3-hydroxy-3-methylcyclobutyl)methanone], it took 25 nM to reach half-maximal inhibition (IC50).

The compound `CC(C)c1cccc(C2CC3(CCN(C(=O)[C@H]4C[C@@](C)(O)C4)C3)C2)c1` (some centres unmarked) [Example 36, ((1s,3s)-3-Hydroxy-3-methylcyclobutyl)(2-(3-isopropylphenyl)-6-azaspiro[3.4]octan-6-yl)methanone] yielded an IC50 of 153 nM.

For `C[C@]1(O)C[C@@H](C(=O)N2CC3(CCC(c4ccccc4)CC3)C2)C1` [Example 37, ((1s,3s)-3-Hydroxy-3-methylcyclobutyl)(7-phenyl-2-azaspiro[3.5]nonan-2-yl)methanone], the IC50 turned out to be 58 nM.

Turning to `C[C@]1(O)C[C@@H](C(=O)N2CC3(CC[C@H](c4ccc(C5CC5)cc4)C3)C2)C1` [Example 50, ((S)-6-(4-Cyclopropylphenyl)-2-azaspiro[3.4]octan-2-yl)((1s,3R)-3-hydroxy-3-methylcyclobutyl)methanone], the IC50 was determined as 9.7 nM. Against the preceding compound, the IC50 is about 6-fold lower.

`C[C@]1(O)C[C@@H](C(=O)N2CC3(CC[C@@H](c4ccc(C5CC5)cc4)C3)C2)C1` [Example 51, ((R)-6-(4-Cyclopropylphenyl)-2-azaspiro[3.4]octan-2-yl)((1s,3S)-3-hydroxy-3-methylcyclobutyl)methanone] gave an IC50 of 5.5 nM.

In the case of `Cc1cc([C@@H]2CCC3(C2)CN(C(=O)[C@H]2C[C@@](C)(O)C2)C3)ccc1Cl` [Example 69, ((R)-6-(4-Chloro-3-methylphenyl)-2-azaspiro[3.4]octan-2-yl)((1s,3S)-3-hydroxy-3-methylcyclobutyl)methanone], the IC50 worked out at 15 nM.

Turning to `Cc1cc([C@H]2CCC3(C2)CN(C(=O)[C@H]2C[C@@](C)(O)C2)C3)ccc1Cl` [Example 70, ((S)-6-(4-Chloro-3-methylphenyl)-2-azaspiro[3.4]octan-2-yl)((1s,3R)-3-hydroxy-3-methylcyclobutyl)methanone], the IC50 was found to be 17 nM.

With `CC(C)(C)c1cccc(C2CC3(CCN(C(=O)[C@H]4C[C@@](C)(O)C4)C3)C2)c1` (some centres unmarked) [Example 89, (2-(3-(tert-Butyl)phenyl)-6-azaspiro[3.4]octan-6-yl)((1s,3s)-3-hydroxy-3-methylcyclobutyl)methanone], the IC50 was 126 nM. Against the preceding compound, the IC50 is about 7.4-fold higher.

`COc1cc(C2CCC3(CC2)CN(C(=O)[C@H]2C[C@@](C)(O)C2)C3)ccc1F` [Example 103, (7-(4-Fluoro-3-methoxyphenyl)-2-azaspiro[3.5]nonan-2-yl)((1s,3s)-3-hydroxy-3-methylcyclobutyl)methanone] came in with an IC50 of 99 nM.

`COc1cc(F)cc(C2CCC3(CC2)CN(C(=O)[C@H]2C[C@@](C)(O)C2)C3)c1` [Example 104, (7-(3-Fluoro-5-methoxyphenyl)-2-azaspiro[3.5]nonan-2-yl)((1s,3s)-3-hydroxy-3-methylcyclobutyl)methanone]: the IC50 is 26 nM.

The compound `COc1ccc(C2CCC3(CC2)CN(C(=O)[C@H]2C[C@@](C)(O)C2)C3)cc1C` [Example 105, ((1s,3s)-3-Hydroxy-3-methylcyclobutyl)(7-(4-methoxy-3-methylphenyl)-2-azaspiro[3.5]nonan-2-yl)methanone] yielded an IC50 of 68 nM.
